Where two headings read alike, the source gives them in different places.
Key:
[1] = biological target: T1, human LSD1-CoREST complex (Homo sapiens, UniProt O60341); set-up: method as in footnote c (number not given); settings: positive control; ref footnote c (number not given); read-out: IC50 (hLSD1 direct inhibition); cited from earlier work
T1 construct: made in house

[2] = MTT cytotoxicity in RPE cells; format: cell-based; settings: human, retinal pigment epithelial (RPE) cells; for viability at 72 h, 5 µM / viability at 72 h, 10 µM / viability at 72 h, 25 µM / viability at 72 h, 50 µM: read-out: percentage of viability, 72 h; for IC50 at 72 h: read-out: IC50 (cell viability)
Protocol: (§1) The MTT method was used to evaluate cell viability after 72 h of treatment.
(§2) Human commercial lung diploid fibroblasts (MRC-5), and diploid retinal epithelium cells (RPE) were obtained from the American Type Culture Collection (ATCC) and kindly provided by Dr Francesca Degrassi (CNR IBPM) and maintained in minimal essential medium or DMEM-F12 medium supplemented with fetal calf serum, antibiotics, and nonessential amino acids. Cells were grown at 37 °C, in a humidified atmosphere, with 5% CO2. For experiments, cells were seeded in 200 μL of complete in each well of a 96-well microtiter plate. After 24 h, compounds were added at 5, 10, 25, and 50 μM for 72 h in sextuplicate. MTT was added (0.5 mg/mL), incubated for 4 h at 37 °C, and dissolved in 200 μL of isopropyl alcohol. Absorbance was measured at 570 nm (ELISA reader, DASIT), and cell viability was calculated as viability=(ODoftreatedcells/ODofcontrolcells)×100

[3] = system: newly transformed schistosomula (NTS); test: NTS viability phenotypic screening, 72 h; settings: for IC50: Schistosoma mansoni, read-out: IC50 (NTS viability)
adult worms [4] = test: Adult worm viability phenotypic assay, 72 h; settings: Schistosoma mansoni, read-out: IC50 (adult worm viability)
[5] = MTT cytotoxicity in MRC-5 cells; format: cell-based; settings: human, MRC-5 lung diploid fibroblast cells; for viability at 72 h, 5 µM / viability at 72 h, 10 µM / viability at 72 h, 25 µM / viability at 72 h, 50 µM: read-out: percentage of viability, 72 h; for IC50 at 72 h: read-out: IC50 (cell viability)
Protocol: as §1, §2

[6] = system: S. mansoni juvenile forms; test: Speed-of-action assay in juvenile forms; format: cell-based, Schistosoma mansoni
Text: (§3) To better characterize a selection of our LSD1i in vitro, we assessed the onset of their action, defined as the time required for an observable antischistosomal effect. […] For detailed percentages of activity at each time point, refer to the Supporting Information (Tables S2 and S3 in Supporting Information).

juvenile and adult worms = system: juvenile and adult worms; set-up: method as in earlier work of the authors (number not given); settings: ref earlier work of the authors (number not given); cited from earlier work
NTS = test: Speed-of-action assay in NTS; format: cell-based, Schistosoma mansoni
Text: as §3

[7] = biological target: T1, human LSD1-CoREST complex; test: HRP-coupled LSD1 inhibition assay; format: biochemical; settings: 10 min preincubation; for IC50: read-out: IC50 (hLSD1 direct inhibition)
Protocol: Protein expression, thermal stability, and inhibition of human LSD1-CoREST were performed using established protocols. […] The reaction was initiated by adding an equal volume of the substrate solution to the enzyme–inhibitor mixture, and resorufin fluorescence (excitation at 530–570 nm and emission at 580–590 nm) was detected with a Clariostar plate reader.

[8] = biological target: T1, human LSD1-CoREST complex; test: Spectrophotometric analysis of flavin cofactor bleaching; format: biochemical
[9] = biological target: T1, human LSD1-CoREST complex; test: ThermoFAD thermal stability assay; format: binding; settings: for ΔTm: LSD1-CoREST thermal stability
Protocol: Compounds 14–22 were tested against the human LSD1-CoREST complex to determine their inhibitory activity. […] ThermoFAD assays were then performed to assess the impact of 14–22 on the thermal stability (ΔT m values, Table ) of the LSD1-CoREST complex. The most significant shifts in Tm values corresponded to the strongest binders. […] Compound 22 was not tested, considering its previous negative results.
Protein expression, thermal stability, and inhibition of human LSD1-CoREST were performed using established protocols. […] LSD1-CoREST (0.4 μM) was preincubated with the inhibitor at 25 °C for 10 min in the presence of 5% DMSO. The reaction was initiated by adding an equal volume of the substrate solution to the enzyme–inhibitor mixture, and resorufin fluorescence (excitation at 530–570 nm and emission at 580–590 nm) was detected with a Clariostar plate reader.

adult worms [10] = test: Pairing and egg laying of adult worms; format: cell-based, Schistosoma mansoni; settings: for eggs' number: 20 μM
Protocol: Selected compounds 2, 15, 18, and 19 were tested on adult worms to evaluate their effects on pairing and egg laying.

For `C#Cc1ccc(C(=O)Nc2ccc(C3CC3N)cc2)cc1` (centres unmarked) [MC3935, reference compound], the IC50 [1] is given as 0.52 µM, the viability at 72 h, 5 µM [2] is given as 84 ± 18% and the viability at 72 h, 10 µM [2] is given as 87 ± 24%. The viability at 72 h, 25 µM [2] was 82 ± 11%, the viability at 72 h, 50 µM [2] was 100 ± 33% and the IC50 at 72 h [2] was > 100 µM. The “Percentage of reduction of NTS viability, 72 h” value (“Percentage of reduction … 72 h” for short) ([3]; 1 μM) was 33.3 ± 0.0%, the “Percentage of reduction … 72 h” value ([3]; 10 μM) was 45.5 ± 4.3% and the “Percentage of reduction … 72 h” value ([3]; 20 μM) was 100 ± 0.0%. The IC50 [3] was 1.95 µM, the IC50 (adult worms [4]) was > 10 µM and the viability at 72 h, 5 µM [5] was 94 ± 10%. For the same molecule, the viability at 72 h, 10 µM [5] was 97 ± 9%, the viability at 72 h, 25 µM [5] was 93 ± 17% and the viability at 72 h, 50 µM [5] was 94 ± 10%. The IC50 at 72 h [5] was > 100 µM, the IC50 ([6]; Schistosoma mansoni, 4 h, read-out: IC50 (speed of action, juvenile forms)) was > 20 µM and the IC50 ([6]; Schistosoma mansoni, 24 h, read-out: IC50 (speed of action, juvenile forms)) was > 20 µM. The IC50 ([6]; Schistosoma mansoni, 48 h, read-out: IC50 (speed of action, juvenile forms)) was > 20 µM, the IC50 ([6]; Schistosoma mansoni, 72 h, read-out: IC50 (speed of action, juvenile forms)) was 17.7 µM and the Percentage of effect ([6]; juvenile forms, 4 h, 1 μM) was 16.67%. It also gave a Percentage of effect ([6]; juvenile forms, 4 h, 10 μM) of 23.33%, a Percentage of effect ([6]; juvenile forms, 4 h, 20 μM) of 41.82% and a Percentage of effect ([6]; juvenile forms, 24 h, 1 μM) of 17.24%. It also gave a Percentage of effect ([6]; juvenile forms, 24 h, 10 μM) of 31.03%, a Percentage of effect ([6]; juvenile forms, 24 h, 20 μM) of 38.46% and a Percentage of effect ([6]; juvenile forms, 48 h, 1 μM) of 26.92%. It also gave a Percentage of effect ([6]; juvenile forms, 48 h, 10 μM) of 32.69%, a Percentage of effect ([6]; juvenile forms, 48 h, 20 μM) of 39.58% and a Percentage of effect ([6]; juvenile forms, 72 h, 1 μM) of 31.48%. For the same molecule, the Percentage of effect ([6]; juvenile forms, 72 h, 10 μM) was 39%, the Percentage of effect ([6]; juvenile forms, 72 h, 20 μM) was 56.25% and the “time to parasite death” value (juvenile and adult worms) was ≤ 96 h. The Percentage of effect (NTS; NTS, 4 h, 10 μM) was 21.15%, the Percentage of effect (NTS; NTS, 4 h, 20 μM) was 23.08% and the Percentage of effect (NTS; NTS, 24 h, 10 μM) was 41.07%. For the same molecule, the Percentage of effect (NTS; NTS, 24 h, 20 μM) was 41.07%, the Percentage of effect (NTS; NTS, 48 h, 10 μM) was 34.69% and the Percentage of effect (NTS; NTS, 48 h, 20 μM) was 57.14%. The Percentage of effect (NTS; NTS, 72 h, 10 μM) was 51.02%, the Percentage of effect (NTS; NTS, 72 h, 20 μM) was 59.18% and the IC50 (NTS; Schistosoma mansoni, 4 h, read-out: IC50 (speed of action, NTS)) was > 20 µM. For the same molecule, the IC50 (NTS; Schistosoma mansoni, 24 h, read-out: IC50 (speed of action, NTS)) was > 20 µM, the IC50 (NTS; Schistosoma mansoni, 48 h, read-out: IC50 (speed of action, NTS)) was 17.6 µM and the IC50 (NTS; Schistosoma mansoni, 72 h, read-out: IC50 (speed of action, NTS)) was 11.5 µM.
With `CC#Cc1ccc(C(=O)Nc2cccc(C3CC3N)c2)cc1.Cl` (centres unmarked) [Compound 21, N-(3-(2-Aminocyclopropyl)phenyl)-4-(prop-1-yn-1-yl)benzamide Hydrochloride] the “IC50 (hLSD1 direct inhibition)” value [7] was “inactive”, the IC50 [7] was > 100 µM and the “bleaching of the flavin cofactor” value [8] was “no bleaching”. The “thermal shift compared to the control” value [9] was “no thermal shift” and the ΔTm [9] was 0 °C.
Molecule `CCCc1ccc(C(=O)Nc2ccc(C3CC3N)cc2)cc1.Cl` (centres unmarked) [Compound 15, N-(4-(2-Aminocyclopropyl)phenyl)-4-propylbenzamide Hydrochloride] has a viability at 72 h, 5 µM [2] of 89 ± 3%, a viability at 72 h, 10 µM [2] of 104 ± 12% and a viability at 72 h, 25 µM [2] of 99 ± 6%. For the same molecule, the viability at 72 h, 50 µM [2] was 106 ± 17%, the IC50 at 72 h [2] was > 100 µM and the IC50 [7] was 0.12 ± 0.02 µM. The “Percentage of reduction … 72 h” value ([3]; 1 μM) was 30.2 ± 1.9%, the “Percentage of reduction … 72 h” value ([3]; 10 μM) was 87.5 ± 4.2% and the “Percentage of reduction … 72 h” value ([3]; 20 μM) was 100 ± 0.0%. For the same molecule, the IC50 [3] was 1.72 µM, the IC50 (adult worms [4]) was > 10 µM and the viability at 72 h, 5 µM [5] was 81 ± 16%. It also gave a viability at 72 h, 10 µM [5] of 91 ± 20%, a viability at 72 h, 25 µM [5] of 89 ± 17% and a viability at 72 h, 50 µM [5] of 92 ± 20%. The IC50 at 72 h [5] was > 100 µM, the IC50 ([6]; Schistosoma mansoni, 4 h; read-out: IC50 (speed of action, juvenile forms)) was > 20 µM and the IC50 ([6]; Schistosoma mansoni, 24 h; read-out: IC50 (speed of action, juvenile forms)) was > 20 µM. For the same molecule, the IC50 ([6]; Schistosoma mansoni, 48 h; read-out: IC50 (speed of action, juvenile forms)) was > 20 µM, the IC50 ([6]; Schistosoma mansoni, 72 h; read-out: IC50 (speed of action, juvenile forms)) was 4.3 µM and the Percentage of effect ([6]; juvenile forms, 4 h, 1 μM) was 23.33%. The Percentage of effect ([6]; juvenile forms, 4 h, 10 μM) was 33.33%, the Percentage of effect ([6]; juvenile forms, 4 h, 20 μM) was 45.45% and the Percentage of effect ([6]; juvenile forms, 24 h, 1 μM) was 24.14%. It also gave a Percentage of effect ([6]; juvenile forms, 24 h, 10 μM) of 34.48%, a Percentage of effect ([6]; juvenile forms, 24 h, 20 μM) of 48.08% and a Percentage of effect ([6]; juvenile forms, 48 h, 1 μM) of 34.62%. It also gave a Percentage of effect ([6]; juvenile forms, 48 h, 10 μM) of 42.31%, a Percentage of effect ([6]; juvenile forms, 48 h, 20 μM) of 50% and a Percentage of effect ([6]; juvenile forms, 72 h, 1 μM) of 40.96%. The Percentage of effect ([6]; juvenile forms, 72 h, 10 μM) was 44.55%, the Percentage of effect ([6]; juvenile forms, 72 h, 20 μM) was 70.83% and the “eggs' number” value (adult worms [10]; 4 h) was 0. The “eggs' number” value (adult worms [10]; 8 h) was 0, the “eggs' number” value (adult worms [10]; 24 h) was 0 and the “eggs' number” value (adult worms [10]; 48 h) was 0. For the same molecule, the “eggs' number” value (adult worms [10]; 72 h) was 8, the “effect on worm pairing” value (adult worms [10]; adult worms) was “no impact on worm pairing” and the Percentage of effect (NTS; NTS, 4 h, 10 μM) was 21.15%. The Percentage of effect (NTS; NTS, 4 h, 20 μM) was 38.46%, the Percentage of effect (NTS; NTS, 24 h, 10 μM) was 50% and the Percentage of effect (NTS; NTS, 24 h, 20 μM) was 57.14%. For the same molecule, the Percentage of effect (NTS; NTS, 48 h, 10 μM) was 51.02%, the Percentage of effect (NTS; NTS, 48 h, 20 μM) was 91.84% and the Percentage of effect (NTS; NTS, 72 h, 10 μM) was 71.43%. For the same molecule, the Percentage of effect (NTS; NTS, 72 h, 20 μM) was 100%, the IC50 (NTS; Schistosoma mansoni, 4 h; read-out: IC50 (speed of action, NTS)) was > 20 µM and the IC50 (NTS; Schistosoma mansoni, 24 h; read-out: IC50 (speed of action, NTS)) was 10 µM. The IC50 (NTS; Schistosoma mansoni, 48 h; read-out: IC50 (speed of action, NTS)) was 9.9 µM, the IC50 (NTS; Schistosoma mansoni, 72 h; read-out: IC50 (speed of action, NTS)) was 9.3 µM and the ΔTm [9] was “+9.5 °C”.
For `Cl.NC1CC1c1cccc(NC(=O)c2ccc(C#CC3CC3)cc2)c1` (centres unmarked) [Compound 22, N-(3-(2-Aminocyclopropyl)phenyl)-4-(cyclopropylethynyl)benzamide Hydrochloride], the “bleaching of the flavin cofactor” value [8] was “no bleaching”, the “thermal shift compared to the control” value [9] was “no thermal shift” and the ΔTm [9] was 0 °C.
